≈ marks a conversion by molar mass, not a printed value. Like-named read-outs stand apart in the source and are kept apart here. Numbered stars: 1 amine (or outer) side, 2 acyl side, 3 side chain; on linkers, the order of the positions; unused ones are H or OH. Square brackets hold non-standard residues; d marks the D form. Peptide text beside a SMILES is read from it. N(tridecyl)Gly = CCCCCCCCCCCCCNCC(=O)O; X1 = CC(c1ccccc1)N(CC(=O)[*:2])[*:1]; NFurfurylGly = O=C(O)CNCc1ccco1; Gly(N(CH2)3NH2) = NCCCNCC(=O)O; Nphe = O=C(O)CNCc1ccccc1; NPrGly = CCCNCC(=O)O; Nlys = NCCCCNCC(=O)O
Columns and labels:
C. albicans = type: cell-based, Candida albicans
Description: One of the most serious crises facing both new and existing antimicrobial compounds is the rapid development of resistance by pathogens to that compound, rendering it useless. This has been an issue observed with all major commercially available antimicrobial drugs and is an increasingly prevalent issue with antifungal drugs (Clatworthy et al., Nat. Chem. Biol. 3, 541-548 (2007); Wiederhold et al., Infect. Drug Resist. 10, 249-259 (2017)). The ability of C. albicans to gain resistance against RMG9-11 was evaluated using two techniques; serial and single passage. Ching et al. described a method for single passage assessment of gain of resistance, which was used here with RMG9-11 (Ching et al., Sci. Rep. 10, 8754 (2020)). Briefly, a single colony of C. albicans was incubated overnight in RPMI-MOPS. Fungal cultures were then incubated for either 24 or 48 hours with concentrations of RMG9-11 ranging from 0 to 80% MIC. […]
Gain of resistance to RMG9-11 by C. albicans was determined using a serial passage assay following previously published methods.43 Single colonies of C. albicans from a frozen stock streak plate were added to a saline solution (0.85%) to achieve an OD530=0.15-0.25. […]

[1] = test system: Escherichia coli ATCC 25922; type: cell-based; settings: 24 h, CAMHB
Description: (§1) This screening led to the discovery of RMG9-11 (FIG. 2C). The minimum inhibitory concentration (MIC) of resynthesized RMG9-11 was initially determined against C. albicans, C. neoformans, and the ESKAPE bacteria via CSLI guidelines (CLSI. Methods for Dilution Antimicrobial Susceptibility Tests for Bacteria That Grow Aerobically, 11th Edition. Clinical and Laboratory Standards Institute (2018); CLSI. Reference method for broth dilution antifungal susceptibility testing of yeasts; approved standard-third edition; CLSI document M27-A3. Clinical and Laboratory Standards Institute (2008)). […] C. albicans clinical isolates include a reference strain (M1), fluconazole susceptible strains (M4 and M6), and fluconazole resistant strains (M2, M3, M5, and M7). ATCC 64124 is multidrug resistant C. albicans strain that is resistant to amphotericin B, fluconazole, caspofungin, and flucytosine. All MICs were performed under CSLI guidelines in triplicate on at least three different days.
(§2) The minimum inhibitory concentration (MIC) of peptoids against the ESKAPE bacteria (Enterococcus faecium ATCC 6569; Staphylococcus aureus ATCC 29213; Klebsiella pneumoniae ATCC 13883; Acinetobacter baumanii ATCC 19606; Pseudomonas aeruginosa ATCC 25619; Enterococcus faecalis ATCC 29212; and Escherichia coli ATCC 25922) was determined following CLSI guidelines (CLSI. Methods for Dilution Antimicrobial Susceptibility Tests for Bacteria That Grow Aerobically, 11th Edition. Clinical and Laboratory Standards Institute, 2018). The MIC against Mycobacterium smegmatis was also determined following CLSI guidelines (Woods, G. L. et al. Susceptibility Testing of Mycobacteria, Nocardiae, and Other Aerobic Actinomycetes, 2nd edition. (2011)). Colonies picked from streaked tryptic soy agar plates were added to tryptic soy broth (TSB) to achieve a turbidity of OD600=0.08-0.15. Inoculant was diluted 1:200 into cation adjust Mueller Hinton Broth (CAMHB) and 90 μL was plated into each well of a 96 well black-wall plate. 2-fold serial dilutions of 10× peptoid (10 μL) were added to each well in triplicate and incubated at 37° C. for 24 hours for the ESKAPE bacteria and 72 hours for M. smegmatis. Tetracycline (20 μg/mL) was used as a positive control with DI water was used as a vehicle control. Following incubation for the ESKAPE bacteria, PRESTO BLUE (10 μL) was added to each well and incubated at 37° C. for one hour before measuring fluorescence on a SPECTRAMAX M5 plate reader (Ex. 555 nm; Em. 585 nm). Following incubation for M. smegmatis, wells were scored following CLSI guidelines to determine MIC. This assay was repeated three times on separate days.

[2] = test system: Enterococcus faecalis ATCC 29212; type: cell-based; settings: 24 h, CAMHB
Description: as §1, §2

[3] = test system: Enterococcus faecium ATCC 6569; type: cell-based; settings: ATCC 6569, 24 h
Description: as §1, §2

[4] = test system: Staphylococcus aureus ATCC 29213; type: cell-based; settings: 24 h, CAMHB
Description: as §1, §2

[5] = test system: Pseudomonas aeruginosa ATCC 25619; type: cell-based; settings: ATCC 25619, 24 h
Description: as §1, §2

Mycobacterium smegmatis = assay: MIC assay, M. smegmatis (72 h); type: cell-based
Protocol: as §2, with “2-fold serial dilutions of 10× peptoid (10 μL) were added to each well in triplicate and incubated at 37° C. for 24 hours for the ESKAPE bacteria and 72 hours for M. smegmatis. Tetracycline (20 μg/mL) was used as a positive control with DI water was used as a vehicle control.” left out, “This assay was repeated three times on separate days.” left out

[6] = test system: Gram-negative and Gram-positive bacteria; type: cell-based; settings: with the exception of K. pnuemoniae
Description: The ESKAPE bacteria consist of the most common multidrug resistant and nosocomial bacterial pathogens including both Gram-positive and Gram-negative species (Pendleton et al., Expert Rev. Anti-infect. Ther. 11, 297-308 (2013)). […] The broad-spectrum antimicrobial activity of RMG9-11 naturally lead to concerns about mammalian cytotoxicity, especially since the membranes of fungi and mammals have similar phospholipid compositions.
The minimum inhibitory concentration (MIC) of peptoids against the ESKAPE bacteria (Enterococcus faecium ATCC 6569; Staphylococcus aureus ATCC 29213; Klebsiella pneumoniae ATCC 13883; Acinetobacter baumanii ATCC 19606; Pseudomonas aeruginosa ATCC 25619; Enterococcus faecalis ATCC 29212; and Escherichia coli ATCC 25922) was determined following CLSI guidelines (CLSI. Methods for Dilution Antimicrobial Susceptibility Tests for Bacteria That Grow Aerobically, 11th Edition. Clinical and Laboratory Standards Institute, 2018). The MIC against Mycobacterium smegmatis was also determined following CLSI guidelines (Woods, G. L. et al. Susceptibility Testing of Mycobacteria, Nocardiae, and Other Aerobic Actinomycetes, 2nd edition. (2011)). […] Following incubation for the ESKAPE bacteria, PRESTO BLUE (10 μL) was added to each well and incubated at 37° C. for one hour before measuring fluorescence on a SPECTRAMAX M5 plate reader (Ex. 555 nm; Em. 585 nm). […]

C. tropicalis = type: cell-based, Candida tropicalis

Which results are given for CCCCCCCCCCCCCNCC(=O)N(CCC)CC(=O)N(CC(=O)N(CCCCN)CC(=O)N(CC(=O)N(CC(=O)N(CCCN)CC(N)=O)Cc1ccccc1)Cc1ccco1)C(C)c1ccccc1 (stereo not shown) [RMG9-11] (H-[N(tridecyl)Gly][NPrGly][X1][Nlys][NFurfurylGly][Nphe][Gly(N(CH2)3NH2)]-NH2)?
Serial Passage MIC (C. albicans; Treated: serial passage with 1 to 25% MIC RMG9-11): 6.25 µg/mL; Serial Passage MIC (C. albicans; Untreated C. albicans): 6.25 µg/mL; MIC E. coli [1]: 6.25 µg/mL (≈ 5.99 µM); MIC E. faecalis [2]: 6.25 µg/mL (≈ 5.99 µM); MIC E. faecium [3]: 3.13 µg/mL (≈ 3 µM); MIC S. aureus [4]: 6.25 µg/mL (≈ 5.99 µM); MIC P. aeruginosa [5]: 12.5 µg/mL (≈ 12 µM); MIC M. smegmatis (Mycobacterium smegmatis): 6.25 µg/mL (≈ 5.99 µM); activity against Gram-negative and Gram-positive bacteria (MIC) [6]: 3.13 to 12.5 µg/mL; MIC C. tropicalis (C. tropicalis): 3.13 µg/mL (≈ 3 µM)
